From ChEMBL document CHEMBL1201862, “PubChem BioAssay data set” (2004) come the findings set out here.

As a reminder, the IC50 is the point on the concentration scale where inhibition reaches its midpoint. One may read the EC50 as the midpoint of the concentration-response curve. One may read the AC50 as the concentration at which the activity in the assay is half-maximal. A word on the GI50: it is the concentration giving 50% growth inhibition.

The target of assay [1] is T1, High affinity choline transporter 1 (Homo sapiens, UniProt Q9GZV3).
T1 sequence (Q9GZV3 whole entry): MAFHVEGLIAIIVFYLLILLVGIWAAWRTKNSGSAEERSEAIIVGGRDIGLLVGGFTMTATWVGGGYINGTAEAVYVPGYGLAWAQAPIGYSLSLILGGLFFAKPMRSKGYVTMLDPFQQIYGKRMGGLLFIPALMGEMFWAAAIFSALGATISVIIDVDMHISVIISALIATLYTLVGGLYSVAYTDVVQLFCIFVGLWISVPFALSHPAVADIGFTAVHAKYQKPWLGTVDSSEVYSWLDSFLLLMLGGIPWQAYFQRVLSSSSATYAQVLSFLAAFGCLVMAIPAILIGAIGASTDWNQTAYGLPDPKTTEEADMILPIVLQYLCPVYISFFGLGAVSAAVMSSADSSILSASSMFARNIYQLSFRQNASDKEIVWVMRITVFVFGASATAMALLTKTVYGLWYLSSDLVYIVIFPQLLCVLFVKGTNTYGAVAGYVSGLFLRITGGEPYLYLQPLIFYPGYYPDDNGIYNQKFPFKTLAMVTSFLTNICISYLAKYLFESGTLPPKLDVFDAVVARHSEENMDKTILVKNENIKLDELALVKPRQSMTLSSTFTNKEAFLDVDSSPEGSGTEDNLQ
Briefly: CHT inhibitors, dose response, cell-based, 5-point CRC, membrane potential dye (AID 504840). It is filed as functional.

Assay [2] deals with T2, Heat shock factor protein 1 (Mus musculus, UniProt P38532).
T2 sequence (P38532 whole entry): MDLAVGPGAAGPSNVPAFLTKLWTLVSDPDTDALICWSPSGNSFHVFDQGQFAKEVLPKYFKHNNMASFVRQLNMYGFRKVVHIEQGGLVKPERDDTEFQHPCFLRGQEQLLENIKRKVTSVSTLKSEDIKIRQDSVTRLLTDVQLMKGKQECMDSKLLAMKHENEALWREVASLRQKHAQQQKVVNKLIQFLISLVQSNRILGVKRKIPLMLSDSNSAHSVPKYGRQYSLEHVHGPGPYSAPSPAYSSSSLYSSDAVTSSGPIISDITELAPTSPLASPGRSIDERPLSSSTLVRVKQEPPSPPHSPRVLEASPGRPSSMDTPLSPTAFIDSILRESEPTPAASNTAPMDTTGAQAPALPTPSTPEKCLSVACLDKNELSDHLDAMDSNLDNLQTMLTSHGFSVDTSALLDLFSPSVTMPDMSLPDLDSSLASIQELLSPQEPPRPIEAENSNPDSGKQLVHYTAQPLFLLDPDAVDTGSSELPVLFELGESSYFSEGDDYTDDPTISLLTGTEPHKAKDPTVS
Briefly: inhibition of MG132-induced HSE-luciferase signal, confirmation, cell-based, NIH3T3, luminescence, dose retest (AID 2382).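 Note: NIH3T3 fibroblasts with HSF1-driven luciferase reporter stressed by proteasome inhibitor MG132; luminescence from HSF1-driven luciferase expression after 8 hours of MG132 stress.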 It is filed as functional.

Assay [3] has as its target FAD-linked sulfhydryl oxidase ALR (Homo sapiens, UniProt P55789). Briefly: inhibitors of human ALR sulfhydryl oxidase, dose response, biochemical, H2O2 detection, luminescence, cherry-pick (AID 493248).
Assay [4] has as its target T3, Rac GTPase-activating protein 1 (Homo sapiens, UniProt Q9H0H5).
T3 sequence (Q9H0H5 whole entry): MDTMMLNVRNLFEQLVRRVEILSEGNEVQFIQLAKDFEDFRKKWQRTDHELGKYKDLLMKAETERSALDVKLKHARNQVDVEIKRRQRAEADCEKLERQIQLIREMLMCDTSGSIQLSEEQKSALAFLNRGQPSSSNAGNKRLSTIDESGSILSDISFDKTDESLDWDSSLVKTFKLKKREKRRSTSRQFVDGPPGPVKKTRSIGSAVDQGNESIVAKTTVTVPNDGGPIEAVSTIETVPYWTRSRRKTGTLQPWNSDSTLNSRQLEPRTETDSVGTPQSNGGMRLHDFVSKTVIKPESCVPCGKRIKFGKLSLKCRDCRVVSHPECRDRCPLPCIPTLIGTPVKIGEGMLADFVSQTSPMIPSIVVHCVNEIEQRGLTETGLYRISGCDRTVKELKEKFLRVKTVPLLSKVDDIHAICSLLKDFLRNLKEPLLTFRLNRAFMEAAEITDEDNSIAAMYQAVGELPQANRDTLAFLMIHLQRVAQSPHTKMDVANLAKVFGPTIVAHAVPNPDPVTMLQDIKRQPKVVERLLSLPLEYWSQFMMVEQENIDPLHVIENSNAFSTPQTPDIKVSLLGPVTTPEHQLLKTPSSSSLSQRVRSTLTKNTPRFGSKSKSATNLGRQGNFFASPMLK
Put plainly: MgcRacGAP GTPase-activating activity inhibitors, confirmation, biochemical, ADP Hunter fluorescence, primary and confirmatory (AID 624330). It is filed as functional.

A short description of assay [5]: inhibitors of firefly luciferase expression or activity, dose response, H4 neuroglioma cells, luminescence (AID 1990). The format is functional, cell-based.
A short description of assay [6]: inhibitors of SNCA 5'UTR-driven reporter translation, confirmation, H4 neuroglioma cells, luminescence (AID 1988). It is filed as functional, cell-based.
Assay [7] is described as follows: inhibitors of HIV Env-driven cell fusion, dose response, cherry-pick (AID 652057). It is filed as functional, cell-based.
A short description of assay [8]: ZM109 Env clade C HIV-1 fusion inhibitors, dose response, HeLa effector, CEM target cells, luciferase, cherry-pick (AID 652058). It is filed as functional, cell-based.
The nature of assay [9]: off-target signal loss in HeLa-CEM21 co-culture – HeLa F-luc CTL cells, cherry-picked, counter-screen for HIV-1 Env fusion inhibitor project, dose response (AID 652040).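 Note: potency for signal decrease marking cytotoxic or nonspecific inhibition.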 It is filed as functional, cell-based. Background: The purpose of a counterscreen is to sort out artefacts and off-target activity.
Assay [10] is described as follows: inhibitors of clade B AD8 Env fusion, dose response, cell-based, cherry-pick (AID 652062).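 Note: luciferase signal from cell-cell fusion driven by HIV-1 clade B AD8 Env; potency is for inhibitors of fusion seen as a drop in luminescence.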 The format is functional.
In another assay the target is T4, Protein skinhead-1 (Caenorhabditis elegans, UniProt P34707).
T4 sequence (P34707 whole entry): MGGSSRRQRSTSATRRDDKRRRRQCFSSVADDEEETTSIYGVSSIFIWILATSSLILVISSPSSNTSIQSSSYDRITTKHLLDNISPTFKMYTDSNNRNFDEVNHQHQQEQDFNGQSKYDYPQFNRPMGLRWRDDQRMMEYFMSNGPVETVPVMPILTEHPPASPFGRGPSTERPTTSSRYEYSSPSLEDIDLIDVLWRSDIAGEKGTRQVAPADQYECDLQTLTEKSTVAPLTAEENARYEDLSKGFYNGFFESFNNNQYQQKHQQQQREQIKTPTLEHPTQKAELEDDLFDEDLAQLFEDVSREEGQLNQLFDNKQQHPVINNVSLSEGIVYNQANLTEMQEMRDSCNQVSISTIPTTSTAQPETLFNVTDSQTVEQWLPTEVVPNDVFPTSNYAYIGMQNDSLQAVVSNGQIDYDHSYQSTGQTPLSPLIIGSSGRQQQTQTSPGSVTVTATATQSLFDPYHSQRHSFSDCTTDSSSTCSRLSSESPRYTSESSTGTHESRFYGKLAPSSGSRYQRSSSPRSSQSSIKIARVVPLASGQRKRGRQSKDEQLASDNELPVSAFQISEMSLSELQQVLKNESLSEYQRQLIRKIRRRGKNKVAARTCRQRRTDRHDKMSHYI
It is filed as functional.

The next assay addresses Large T antigen (Simian virus 40, UniProt P03070). The format is functional, Betapolyomavirus macacae.
The next assay relates to P388/ADR. Briefly: cells. Conditions: Mus musculus. The format is functional.
In the next assay the test system is SN12K1. Briefly: cells. The format is functional. The note with it: Homo sapiens.
In a further assay the test system is P388. Briefly: cells. It is filed as functional. The note with it: Mus musculus.

Each structure is given as a SMILES string. Activity calls are given as the source filed them.

Sequence of Large T antigen (P03070 whole entry): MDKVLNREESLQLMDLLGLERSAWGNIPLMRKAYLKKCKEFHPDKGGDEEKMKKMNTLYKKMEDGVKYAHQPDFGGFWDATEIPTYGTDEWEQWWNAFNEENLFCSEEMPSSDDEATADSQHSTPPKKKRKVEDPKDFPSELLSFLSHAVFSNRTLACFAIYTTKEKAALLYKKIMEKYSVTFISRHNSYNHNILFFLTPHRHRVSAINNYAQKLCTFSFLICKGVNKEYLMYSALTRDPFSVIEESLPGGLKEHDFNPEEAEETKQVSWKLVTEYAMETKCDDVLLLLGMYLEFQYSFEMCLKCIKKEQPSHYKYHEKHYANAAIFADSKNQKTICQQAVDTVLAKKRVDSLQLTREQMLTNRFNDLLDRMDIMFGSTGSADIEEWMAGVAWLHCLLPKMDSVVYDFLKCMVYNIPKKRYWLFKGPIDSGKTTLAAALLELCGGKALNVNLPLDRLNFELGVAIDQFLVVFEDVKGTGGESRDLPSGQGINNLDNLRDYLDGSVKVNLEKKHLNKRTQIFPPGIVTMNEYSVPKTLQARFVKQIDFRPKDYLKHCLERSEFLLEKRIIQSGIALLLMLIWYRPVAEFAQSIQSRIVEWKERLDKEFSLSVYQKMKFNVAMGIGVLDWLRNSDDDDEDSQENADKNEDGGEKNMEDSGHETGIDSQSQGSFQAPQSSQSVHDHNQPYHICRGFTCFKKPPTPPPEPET
Sequence of FAD-linked sulfhydryl oxidase ALR (P55789 whole entry): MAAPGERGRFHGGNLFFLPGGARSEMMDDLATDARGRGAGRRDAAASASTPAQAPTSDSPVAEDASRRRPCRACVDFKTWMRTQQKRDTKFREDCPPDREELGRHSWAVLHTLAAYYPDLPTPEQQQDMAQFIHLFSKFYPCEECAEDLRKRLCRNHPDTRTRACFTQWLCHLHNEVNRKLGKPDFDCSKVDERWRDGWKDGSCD

Turning to `COc1ccc(C(=O)N(C)Cc2ccc(C)o2)cc1OC1CCN(C(C)C)CC1`, in [1], the IC50 is 12.6 µM (active).

Turning to `O=C(Nc1ccc(F)c(Cl)c1)C1CCN(S(=O)(=O)c2cccnc2)CC1`, in assay [2], the EC50 was > 195 µM (not active). In addition, the IC50 in [1] was 13.2 µM (active).

On to `CCN(CC)c1ccc(NC(=O)CNCc2ccccc2Cl)c(C)c1`, for which, in assay [3], the half-maximal activity concentration (AC50) was 1.61 µM (active). Also, the results for the IC50 in assay [1] and in [4] were 20.9 µM (active) and 31 µM (active), respectively.

As to `COc1ccc(C(=O)C(C)N(C(=O)c2ccc(Cl)cc2Cl)N2C(=O)C3C4C=CC(C4)C3C2=O)cc1` (stereo unspecified), the EC50 in [5] is 16.7 µM (active); in assay [6] it was > 120 µM (not active). Moreover, the AC50 in [7] is 2.94 µM (active); in assay [8], 2.82 µM (active); in [9] it was 4.93 µM (active); in [10], 13.1 µM (active).

With `Cc1cc(C)c2nc(C(F)(F)F)nc(N3CCN(C(=O)c4ccco4)CC3)c2c1`, the IC50 at Protein skinhead-1 was > 100 µM (inactive). Further, the concentration at half-maximal activity (AC50) was 31.2 µM (active) in [7], 1.22 µM (active) in assay [8], 21.9 µM (active) in [9] and 25.7 µM (active) in assay [10].

Consider `CC[C@@]12C(=O)N(c3ccccc3)C(=O)N1[C@H](c1ccc(OC)cc1)[C@@H]1C(=O)N(C(C)(C)C)C(=O)[C@@H]12`, for which the AC50 in assay [7] was 1.22 µM (active); in assay [8], 1.67 µM (active); in assay [9] it was 2.68 µM (active); in assay [10], 3.89 µM (active).

In the case of `CN(C)c1ccc(C(=O)c2ccc(O)cc2O)cc1`, the concentration for half-maximal inhibition (IC50) in [1] is 11 µM (active).

Turning to `COc1ccc(-c2nnn(CC(=O)N(Cc3cccs3)C(C)C(=O)NC3CCCC3)n2)cc1OC` (stereo unspecified), the AC50 in [7] is 5.2 µM (active); in [8], 9.35 µM (active); in [9] it was 24.8 µM (active); in assay [10] it was 10.1 µM (active).

Regarding `O=C1NC(=O)N(c2ccc(Cl)cc2)C(=O)/C1=C/c1coc2ccc(O)cc2c1=O`, the IC50 was > 100 µM (active) on Large T antigen and 12.7 µM (active) in [1].

Regarding `CCC1(C)Cc2c(sc3nnn(CC(=O)Nc4ccccc4)c(=O)c23)CO1` (stereo unspecified), the concentration for half-maximal inhibition (IC50) in assay [1] was 11.5 µM (active).

Consider `COc1cccc2c1C(=O)c1c(O)c3c(c(O)c1C2=O)C[C@@](O)(C(C)=O)C[C@@H]3OC1CC(N)C(O)C(C)O1` (stereo partly specified), for which the GI50 with P388/ADR is 1.23 µM (inactive); in the assay on SN12K1, 0.069 µM (active); in the assay on P388 it was 0.076 µM (active).

With `C[C@@]12CC(=O)NC1N(C(=O)c1cccc(C(F)(F)F)c1)C(c1ccccc1O)C2` (stereo partly specified), the AC50 in [7] was 3.74 µM (active); in assay [8], 7.54 µM (active); in assay [9] it was 7.18 µM (active); in assay [10], 26.7 µM (active).

For the compound `CCCn1c2ccccc2c2cnn(CC(=O)NCCN(C)C)c(=O)c21`, the IC50 in assay [1] was 11.5 µM (active).

`Cc1ccc(N(O)C(C)(C)C)cc1`: the GI50 is 24.8 µM (inactive) in the assay on P388/ADR, > 100 µM (inactive) with SN12K1 and > 52.1 µM (inactive) in the assay with P388.

Take `C/C(=N\NC(=S)N1CCN(c2ccccn2)CC1)c1ncccn1`: the figures for the GI50 in the assay with P388/ADR, in the assay on SN12K1 and in the assay on P388 were 0.00356 µM (active), 0.007 µM (active) and 0.00326 µM (active), respectively.

On to `O=C1N[C@@H]([C@H]2CC[C@H](Cl)CN2)C(=O)N[C@H]1[C@H]1CC[C@H](Cl)CN1`, for which the GI50 is 0.318 µM (active) with P388/ADR, 1.02 µM (active) in the assay with SN12K1 and 0.327 µM (active) in the assay with P388.

`O=[N+]([O-])c1cc2ncc(-c3ccccc3)c(O)c2cc1/C(Cl)=C/c1ccccc1`: the GI50 in the assay on P388/ADR was 4.53 µM (inactive); with SN12K1 it was 9.08 µM (inactive); in the assay on P388, 7.35 µM (inactive).

Regarding `CC(=O)/C=C/c1c[nH]c(=O)[nH]c1=O`, the GI50 was 148 µM (inactive) with P388/ADR, 121 µM (inactive) in the assay with SN12K1 and 164 µM (inactive) in the assay on P388.

Regarding `NC(=O)NN=C(CS)CS`, the GI50 in the assay on P388/ADR was 29.2 µM (inactive); with SN12K1, 18.7 µM (inactive); in the assay with P388, 19.1 µM (inactive).

Regarding `O=C(NCCCCCCNC(=O)n1cc(F)c(=O)[nH]c1=O)NCCCOCCOCCCNC(=O)C(O)C(O)C(O)C(O)CO` (stereo unspecified), the results for the concentration for 50% growth inhibition (GI50) in the assay with P388/ADR, in the assay with SN12K1 and in the assay with P388 were 0.0822 µM (active), > 1.91 µM (inactive) and 0.107 µM (active), respectively.

On to `CC(=O)NC(Cc1ccsc1)C(=O)O` (stereo unspecified), for which the GI50 in the assay with P388/ADR, in the assay on SN12K1 and in the assay with P388 was > 100 µM (inactive) in each case.

On to `COc1cc(/N=N\c2cccc(S(=O)(=O)O)c2)c(C)cc1/N=N\c1ccc(/C=C/c2ccc(/N=[N+](/[O-])c3ccc(/C=C/c4ccc(/N=N\c5cc(C)c(/N=N/c6cccc(S(=O)(=O)O)c6)cc5OC)cc4)c(S(=O)(=O)O)c3)cc2S(=O)(=O)O)cc1`, for which the GI50 in the assay on SN12K1 and in the assay with P388 was > 100 µM (inactive) in each case.

Regarding `CCN(CC)c1ccc2cc(C(=O)Nc3ccc4[nH]c(C(=O)N5C[C@@H](CCl)c6c5cc(OC(=O)Nc5ccccc5)c5[nH]cc(C)c65)cc4c3)oc2c1` [CARZELESIN], the GI50 in the assay on P388/ADR was 259 µM (inactive); with SN12K1, 0.00016 µM (active); with P388, 8.38e-05 µM (active).
